Here are results for 33 compounds from patent US20260285880A1, “SUBSTITUTED DIHYDROTHIENOPYRIMIDINE COMPOUND, PREPARATION METHOD THEREFOR, AND USE THEREOF” (SHANGHAI YIDI BIOTECHNOLOGY CO., LTD., priority 2023, published 2026).

For one assay, the target named is PDE4D2 (Homo sapiens, UniProt Q08499). The experiment in a line: PDE4D2 enzyme experiment (AMP-Glo). Particulars: read-out: PDE4D2 IC50 Binding; enzyme assay.
A further assay has as its target Flpin-293-PDE4B2 cells (Homo sapiens, UniProt Q07343). The experiment in a line: cell-based. To be noted: for inhibition at 0.001 µM: read-out: Cell Inhibition % @1 nM, 1 nM, Flpin-293-PDE4B2 cells; for inhibition at 0.01 µM: read-out: Cell Inhibition % @10 nM, 10 nM, Flpin-293-PDE4B2 cells; for inhibition at 0.1 µM: read-out: Cell Inhibition % @100 nM, 100 nM, Flpin-293-PDE4B2 cells.

A further assay concerns the target PDE4B2 (Homo sapiens, UniProt Q07343). Particulars: for IC50: read-out: PDE4B2 IC50, enzyme assay.

Chain of PDE4D2 (Q08499 303-809 limits assumed): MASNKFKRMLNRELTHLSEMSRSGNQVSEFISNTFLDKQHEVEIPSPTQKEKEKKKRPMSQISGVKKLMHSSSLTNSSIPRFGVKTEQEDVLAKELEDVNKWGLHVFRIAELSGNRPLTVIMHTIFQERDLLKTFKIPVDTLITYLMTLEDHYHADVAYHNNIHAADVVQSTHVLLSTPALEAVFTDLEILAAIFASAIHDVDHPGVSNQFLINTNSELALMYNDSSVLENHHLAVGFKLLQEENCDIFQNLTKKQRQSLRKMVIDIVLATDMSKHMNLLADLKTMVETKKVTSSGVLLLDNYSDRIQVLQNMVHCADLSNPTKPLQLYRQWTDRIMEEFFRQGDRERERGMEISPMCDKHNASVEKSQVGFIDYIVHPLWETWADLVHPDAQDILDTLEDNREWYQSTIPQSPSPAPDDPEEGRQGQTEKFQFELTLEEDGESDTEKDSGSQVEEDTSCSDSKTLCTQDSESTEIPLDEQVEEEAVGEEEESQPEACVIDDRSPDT
Chain of PDE4B2 (Q07343 1-564 isoform Q07343-2, species assumed): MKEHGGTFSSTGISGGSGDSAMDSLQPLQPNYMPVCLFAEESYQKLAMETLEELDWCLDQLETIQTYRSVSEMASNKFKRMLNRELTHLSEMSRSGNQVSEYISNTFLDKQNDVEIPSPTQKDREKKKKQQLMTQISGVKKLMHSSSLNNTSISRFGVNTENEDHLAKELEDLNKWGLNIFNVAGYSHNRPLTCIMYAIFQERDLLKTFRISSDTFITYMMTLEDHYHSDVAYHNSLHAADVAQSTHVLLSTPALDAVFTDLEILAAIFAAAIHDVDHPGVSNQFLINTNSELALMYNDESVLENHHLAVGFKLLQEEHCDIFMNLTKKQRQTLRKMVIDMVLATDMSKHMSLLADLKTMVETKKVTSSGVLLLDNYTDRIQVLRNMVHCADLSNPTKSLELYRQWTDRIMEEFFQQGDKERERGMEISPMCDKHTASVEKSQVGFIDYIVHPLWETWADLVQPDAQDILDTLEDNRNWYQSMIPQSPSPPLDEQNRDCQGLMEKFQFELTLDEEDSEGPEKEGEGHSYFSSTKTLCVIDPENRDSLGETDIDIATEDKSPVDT
Chain of Flpin-293-PDE4B2 cells (Q07343 1-564 isoform Q07343-2): as the sequence (Q07343 1-564 isoform Q07343-2, species assumed) above
Method for Flpin-293-PDE4B2 cells: All compounds were dissolved in DMSO into 10 mM or 20 mM stock solutions. The compound to be tested was diluted with DMSO with a 3-fold gradient. […] 40 nL/well of the compound or a DMSO control was transferred to a 384-well plate by using Echo 550 instrument. […] The plate was incubated at 37° C. for 30 minutes. Eu-cAMP tracer and Ulight-anti-cAMP were frozen and thawed and diluted in a lysis buffer. 10 of μl Eu-cAMP tracer was added to an experimental well, and 10 μl of Ulight-anti-cAMP was added to the experimental well. The reaction plate was centrifuged at 200 g at room temperature for 30 s and then left to stand at 25° C. for 1 h, and data was then collected by Envision. Inhibition %=100−(Signal compound−SignalAve positive control)/(SignalAve negative control−SignalAve positive control)×100.
Method for PDE4D2: All compounds were dissolved in DMSO into 10 mM or 20 mM stock solutions. The compound to be tested was diluted with DMSO in a 3-fold gradient. 20 nL/well of the compound or a DMSO control was transferred to a 384-well plate by using Echo 550 instrument. The plate was sealed with a membrane and centrifuged for 1 minute. A 2× enzyme solution was prepared with an assay buffer, and 2 uL/well of the 2× enzyme solution was added, followed by equilibration at room temperature for 10 minutes. A 2× Cyclic-3′,5′-AMP substrate solution was prepared with an assay buffer, and 2 uL/well of the 2× substrate solution was added, followed by incubation at room temperature for 60 minutes. 4 μL of AMP-glo reagent was added, followed by incubation at room temperature for 60 minutes. 8 ul of an AMP detection solution was added, followed by incubation at room temperature for 60 minutes. An RLU value was read on Envision 2105 plate reader. The RLU value represents the concentration of the product AMP. Inhibition rate %=(1−(RLUpositive control−RLUcomnpound)/(RLUpositive control−RLUnegative control))*100. The IC50 value was then calculated by Graphpad 8.0 software using Y=Bottom+(Top−Bottom)/(1+10^((LogIC50−X)*HillSlope)).

The IC50 is the concentration that gives 50% inhibition. What is called inhibition is the drop in the measured response relative to a control, in per cent. Consider `[O-][S+]1CCc2nc(N3CC[C@@H]4c5ccc(Cl)nc5OC[C@H]4C3)nc(NC3(CO)CCC3)c21` (some centres unmarked) [Compound 119], for which the IC50 on PDE4D2 is 2.79 nM. At Flpin-293-PDE4B2 cells, the inhibition at 0.001 µM amounted to 14%, the inhibition at 0.01 µM is 55.1% and the inhibition at 0.1 µM turned out to be 96%. Moreover, the IC50 on PDE4B2 amounted to 1.37 nM.
As to `C[C@H]1CN(c2nc3c(c(NC4(CO)CCC4)n2)[S+]([O-])CC3)Cc2ccc(Cl)cc21` (some centres unmarked) [Compound 120], at Flpin-293-PDE4B2 cells, the inhibition at 0.001 µM amounted to 4.1%, the inhibition at 0.01 µM came out at 7.4% and the inhibition at 0.1 µM came out at 23.1%. The IC50 on PDE4B2 was found to be 0.98 nM.
As to `C[C@@H]1Cc2cc(Cl)ccc2CN1c1nc2c(c(NC3(CO)CCC3)n1)[S+]([O-])CC2` (some centres unmarked) [Compound 121], the IC50 on PDE4D2 came out at 48.2 nM. On Flpin-293-PDE4B2 cells, the inhibition at 0.001 µM was found to be 0.4%, the inhibition at 0.01 µM worked out at 10% and the inhibition at 0.1 µM worked out at 29.4%. In addition, the IC50 on PDE4B2 turned out to be 13.5 nM.
The matching figures for `C[C@H]1Cc2cc(Cl)ccc2CN1c1nc2c(c(NC3(CO)CCC3)n1)[S+]([O-])CC2` (some centres unmarked) [Compound 122]: 2.04 nM, 5.4%, 49.9%, 96.8% and 0.838 nM.
The matching figures for `C[C@@H]1c2ccc(Br)cc2CCN1c1nc2c(c(NC3(CO)CCC3)n1)[S+]([O-])CC2` (some centres unmarked) [Compound 124]: 2.92 nM, 8.7%, 42.6%, 97.3% and 0.98 nM.
The matching figures for `[O-][S+]1CCc2nc(N3CCc4cc(Cl)ccc4[C@H]3C3CC3)nc(NC3(CO)CCC3)c21` (some centres unmarked) [Compound 125]: 1.98 nM, 2.85%, 21.8%, 90.6% and 0.968 nM.
For the compound `CN(C)c1ccc2c(c1)CCN(c1nc3c(c(NC4(CO)CCC4)n1)[S+]([O-])CC3)C2` (centres unmarked) [Compound 126], the half-maximal inhibitory concentration (IC50) at PDE4D2 came to 1.64 nM. Further, at Flpin-293-PDE4B2 cells, the inhibition at 0.001 µM is 19.8%, the inhibition at 0.01 µM came to 77.4% and the inhibition at 0.1 µM is 100%. For the same compound, the IC50 on PDE4B2 was 0.951 nM.
As for `NC(=O)Cc1ccc(Nc2nc(N3CCc4cc(Cl)ccc4C3)nc3c2[S+]([O-])CC3)cc1` (centres unmarked) [Compound 127], the IC50 on PDE4D2 is 0.424 nM. In addition, on Flpin-293-PDE4B2 cells, the inhibition at 0.001 µM worked out at 9.78%, the inhibition at 0.01 µM came out at 73% and the inhibition at 0.1 µM was 100%. Further, the IC50 at PDE4B2 came to 0.164 nM.
The matching figures for `[O-][S+]1CCc2nc(N3CCc4cc(N5CC[C@@H](O)C5)ccc4C3)nc(NC3(CO)CCC3)c21` (some centres unmarked) [Compound 130]: 0.59 nM, 11.8%, 57.9%, 100% and 0.297 nM.
Take `[O-][S+]1CCc2nc(N3CCc4cc(N5CC[C@@H](CO)C5)ccc4C3)nc(NC3(CO)CCC3)c21` (some centres unmarked) [Compound 131]: the IC50 at PDE4D2 worked out at 0.333 nM. Also, at Flpin-293-PDE4B2 cells, the inhibition at 0.001 µM is 16.6%, the inhibition at 0.01 µM worked out at 76% and the inhibition at 0.1 µM is 98.7%. For the same compound, the IC50 on PDE4B2 came out at 0.147 nM.
The matching figures for `[O-][S+]1CCc2nc(N3CCc4cc(N5CCC[C@H]5CO)ccc4C3)nc(NC3(CO)CCC3)c21` (some centres unmarked) [Compound 132]: 0.651 nM, 16.2%, 78.6%, 102% and 0.368 nM.
For `C[C@@H]1CCCN1c1ccc2c(c1)CCN(c1nc3c(c(NC4(CO)CCC4)n1)[S+]([O-])CC3)C2` (some centres unmarked) [Compound 133], the IC50 at PDE4D2 is 1.55 nM. In addition, on Flpin-293-PDE4B2 cells, the inhibition at 0.001 µM came to 10.5%, the inhibition at 0.01 µM came to 33% and the inhibition at 0.1 µM came out at 94.2%. For the same compound, at PDE4B2, the IC50 is 0.515 nM.
Turning to `C[C@H]1CCCN1c1ccc2c(c1)CCN(c1nc3c(c(NC4(CO)CCC4)n1)[S+]([O-])CC3)C2` (some centres unmarked) [Compound 134], the IC50 on PDE4D2 was determined as 0.24 nM. For the same compound, on Flpin-293-PDE4B2 cells, the inhibition at 0.001 µM is 19.2%, the inhibition at 0.01 µM was 86.8% and the inhibition at 0.1 µM is 101%. Also, the IC50 at PDE4B2 came out at 0.098 nM.
`CN1CC(Nc2nc(N3CCc4cc(Cl)ccc4C3)nc3c2[S+]([O-])CC3)CCC1=O` (centres unmarked) [Compound 136]: the IC50 on PDE4D2 was determined as 0.0825 nM. For the same compound, on Flpin-293-PDE4B2 cells, the inhibition at 0.001 µM came out at 48.1%, the inhibition at 0.01 µM was 98.3% and the inhibition at 0.1 µM came to 101%. The IC50 at PDE4B2 is 0.0407 nM.
The corresponding values for `Cn1cc(CNc2nc(N3CCc4cc(Cl)ccc4C3)nc3c2[S+]([O-])CC3)cn1` (centres unmarked) [Compound 142] are 2.27 nM, 6.79%, 34.8%, 94.4% and 0.837 nM.
The matching figures for `[O-][S+]1CCc2nc(N3CCc4cc(N5CCCCC5)ccc4C3)nc(NC3(CO)CCC3)c21` (centres unmarked) [Compound 143]: 0.252 nM, 13.9%, 72.5%, 100% and 0.113 nM.
The matching figures for `[O-][S+]1CCc2nc(N3CCc4cc(N5CCOCC5)ccc4C3)nc(NC3(CO)CCC3)c21` (centres unmarked) [Compound 144]: 0.697 nM, 7.35%, 51.4%, 98.6% and 0.44 nM.
For `CN1C[C@H]2C[C@@H]1CN2c1ccc2c(c1)CCN(c1nc3c(c(NC4(CO)CCC4)n1)[S+]([O-])CC3)C2` (some centres unmarked) [Compound 155], on Flpin-293-PDE4B2 cells, the inhibition at 0.001 µM worked out at 12%, the inhibition at 0.01 µM is 46.8% and the inhibition at 0.1 µM worked out at 76.1%. Besides, on PDE4B2, the IC50 was determined as 0.692 nM.
For `[O-][S+]1CCc2nc(N3CCc4cc(N5C[C@@H]6[C@@H](CO)[C@@H]6C5)ccc4C3)nc(NC3(CO)CCC3)c21` (some centres unmarked) [Compound 174], the values for the IC50 on PDE4D2 and on PDE4B2 were 0.231 nM and 0.197 nM, respectively.
With `[O-][S+]1CCc2nc(N3CCc4cc(N5CCCC5)ncc4C3)nc(NC3(CO)CCC3)c21` (centres unmarked) [Compound 183], on Flpin-293-PDE4B2 cells, the inhibition at 0.001 µM was 12.8%, the inhibition at 0.01 µM stood at 78.5% and the inhibition at 0.1 µM came to 99.9%. The IC50 at PDE4B2 is 0.413 nM.
On to `[O-][S+]1CCc2nc(N3CCc4nc(N5CCCC5)sc4C3)nc(NC3(CO)CCC3)c21` (centres unmarked) [Compound 195], for which the IC50 was found to be 1.12 nM on PDE4D2 and 0.956 nM on PDE4B2.
The matching figures for `Cn1cnc(Nc2nc(N3CCc4cc(N5CCCC5)ccc4C3)nc3c2[S+]([O-])CC3)c1` (centres unmarked) [Compound 197]: 23.8 nM and 13.3 nM.
The corresponding values for `C[C@H]1c2ccc(N3CCCC3)cc2CCN1c1nc2c(c(Nc3cnn(C4COC4)c3)n1)[S+]([O-])CC2` (some centres unmarked) [Compound 208] are 0.766 nM and 0.22 nM.
With `C[C@H]1c2ccc(N3CCCC3)cc2CCN1c1nc2c(c(Nc3cnn(CCO)c3)n1)[S+]([O-])CC2` (some centres unmarked) [Compound 210], the concentration for half-maximal inhibition (IC50) on PDE4D2 is 1.21 nM.
Consider `C[C@H]1c2ccc(N3CCCC3)cc2CCN1c1nc2c(c(Nc3ncnn3C)n1)[S+]([O-])CC2` (some centres unmarked) [Compound 217], for which, at Flpin-293-PDE4B2 cells, the inhibition at 0.001 µM is 2.48%, the inhibition at 0.01 µM stood at 25% and the inhibition at 0.1 µM turned out to be 84.5%.
The matching figures for `C[C@H]1c2ccc(N3CCCC3)cc2CCN1c1nc2c(c(Nc3ccnn3CCO)n1)[S+]([O-])CC2` (some centres unmarked) [Compound 219]: 6.98%, 32.6% and 66.3%.
The corresponding values for `C[C@H]1c2ccc(N3CCCC3)cc2CCN1c1nc2c(c(Nc3cnn(CCC#N)c3)n1)[S+]([O-])CC2` (some centres unmarked) [Compound 220] are 13.8%, 73.4% and 100%.
The matching figures for `C[C@H]1c2ccc(N3CCCC3)cc2CCN1c1nc2c(c(NC3(CO)CCCC3)n1)[S+]([O-])CC2` (some centres unmarked) [Compound 221]: 11.3%, 71.5% and 99.7%.
In the case of `CC(=O)N1CC[C@H](Nc2nc(N3CCc4cc(N5CCCC5)ccc4[C@@H]3C)nc3c2[S+]([O-])CC3)C1` (some centres unmarked) [Compound 222], on Flpin-293-PDE4B2 cells, the inhibition at 0.001 µM is 41.5%, the inhibition at 0.01 µM was found to be 96.2% and the inhibition at 0.1 µM came to 101%.
The matching figures for `Cn1cc(Nc2nc(N3CCc4cc(N5CC6CC6C5)ccc4C3)nc3c2[S+]([O-])CC3)cn1` (centres unmarked) [Compound 223]: 11.3%, 73.7% and 99.2%.
The corresponding values for `C[C@H]1c2ccc(N3CCC(F)(F)C3)cc2CCN1c1nc2c(c(NC3(CO)CCC3)n1)[S+]([O-])CC2` (some centres unmarked) [Compound 224] are 10.7%, 44.4% and 98.9%.
Consider “(R)-2-(7-fluoro-6-(pyrrolidin-1-yl)-3,4-dihydroisoquinolin-2(1H)-yl)-4-((1-(hydroxymethyl)cyclobutyl)amino)-6,7-dihydrothieno[3,2-d]pyrimidine 5-oxide [Compound 181]”, for which, on PDE4D2, the IC50 is 0.876 nM.
For the compound “(R)-4-((1-(hydroxymethyl)cyclobutyl)amino)-2-(6-(1-methyl-2,5-dihydro-1H-pyrrol-3-yl)-3,4-dihydroisoquinolin-2(1H)-yl)-6,7-dihydrothieno[3,2-d]pyrimidine 5-oxide [Compound 169]”, the “PDE4B2 Enzyme Inhibition % @10 nM” value at PDE4B2 (10 nM) amounted to 20.43%. In addition, the “PDE4B2 Enzyme Inhibition % @100 nM” value at PDE4B2 (100 nM) is on record as 78.77%.
